{"source": "patent US7390836B2", "about": "“Small molecules used to increase cell death” (priority 1999, dated 2008)", "key": {"BH3/Bcl-xL binding": {"test_system": "BH3/Bcl-xL binding", "assay": "SELDI binding assay, unlabeled Bak BH3 peptide on immobilized Bcl-xL-His6", "settings": "for relative activity in SELDI assay: comparison between compounds", "description": "To test the possibility that BH3Is target the OREGON GREEN moiety of the fluorescently labeled BH3 peptide, a novel BH3/Bcl-xL binding assay using unlabeled BH3 peptide was designed. In this assay Bcl-xL was covalently attached to a surface-enhanced laser desorption/ionization (SELDI) chip, and binding of the unlabelled BH3 peptide to the immobilized protein was monitored by mass spectrometry. Specifically, purified recombinant GST-Bcl-2 and BCL-xL-His6 were coupled through their primary amines to SELDI chip surfaces derivatized with carbonyldiimidazole (Ciphergen). Bak BH3 peptide was then added (in a total volume of 1 μl) for 12 hours at 4° C. in a humidified chamber, to allow binding to each spot of the SELDI chip. The chip was then washed with alternating high and low pH-0.1M sodium acetate with 0.5M NaCl, followed by 0.01M HEPES; pH 7.3. The samples were embedded in α-cyanno-4-hydroxycinnamaic acid matrix and analyzed for mass by MALDI TOF. An average of 100 laser shots at a constant setting were collected over 20 spots in each sample."}, "[1]": {"biological_target": "T1, Bcl-xL/Bax heterodimerization in 293 cells (Homo sapiens, UniProt Q07817)", "T1 construct": "expressed in transfected cells; host or cells: 293 cells", "T1 sequence (Q07817 whole entry, one chain of several)": "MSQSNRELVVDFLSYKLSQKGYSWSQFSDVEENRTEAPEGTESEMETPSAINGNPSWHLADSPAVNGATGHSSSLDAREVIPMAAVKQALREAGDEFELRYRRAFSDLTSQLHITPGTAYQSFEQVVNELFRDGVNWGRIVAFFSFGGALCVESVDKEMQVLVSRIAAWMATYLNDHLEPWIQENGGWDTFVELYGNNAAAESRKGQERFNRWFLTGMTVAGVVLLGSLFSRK", "assay": "FRET between Bcl-xL-CFP and Bax-YFP in intact cells", "assay_type": "cell-based", "settings": "rank order; for order of relative effects on YFP fluorescence reduction: rough index of cell death", "description": "The effect of the BH3Is on the disruption of the heterodimerization of Bcl-2 family proteins in vivo was next determined. Dimerization of Bcl-2 in immunoprecipitation experiments may represent post-lysis events induced by detergents (Hsu et al., J. Biol. Chem. 272:13829-34, 1997). Therefore, these studies focused on assaying the Bcl-xL dimerization status in intact cells. Recently, the interaction between Bax and Bcl-2 has been studied in intact living cells by fluorescent resonance energy transfer measurements between GFP fusion proteins (Mahajan et al., Nat. Biotechnol. 16:547-52, 1998). This approach was used to monitor the effects of BH3Is on Bcl-xL/Bax heterodimerization in intact cells.\n293 cells were transfected with Bcl-xL-CFP and Bax-YFP expression vectors using Lipofectamine Plus (Gibco) or TransLT-1 (PanVera) and 24 hr later were treated with BH3Is. Cells were harvested in PBS supplemented with BH3Is, and fluorescence was determined using a C-60 fluorimeter (PTI) or a Wallac platereader. Fluorescence in the samples separately overexpressing Bax and Bcl-xL was added together and used to estimate the FRET value in the absence of dimerization. The extent of FRET between CFP and YFP was determined as a ratio of fluorescence at 527 nm vs. 475 nm after excitation at 433 nm."}, "[2]": {"test_system": "tBid / Bcl-xL heterodimerization", "assay": "tBid pulldown with Bcl-xL-His6 beads", "assay_type": "binding", "settings": "for effect on tBid binding to Bcl-xL: 35S labeled in vitro translated tBid; for relative activity in tBid pulldown: comparison between compounds", "procedure": "Next, it was determined whether BH3Is could disrupt the heterodimerization of Bcl-xL with pro-apoptotic proteins from the Bcl-2 family, such as truncated Bid (tBid). Truncation of Bid by caspase-8 activates Bid and dramatically increases its affinity towards anti-apoptotic Bcl-2 family members (Li et al., Cell 94:491-501, 1998). To perform this study, in vitro translation of tBid or U2AF^65 (control) was performed using TNT® Coupled Reticulocyte and Wheat Germ Lysate Systems (Promega) respectively. Bcl-xL, U2AF^35 (control) or corresponding amounts of original Ni-NTA agarose beads (blank) were pre-incubated with the BH3 inhibitors or peptide in 100 μl of PBS for 30 min at 25° C. Then 1 μl of ^35S-labeled tBID or U2AF^65 was added and incubation was continued for 2 hr at 4° C. The samples were subjected to SDS-PAGE, coomassie blue staining and autoradiography."}, "[3]": {"biological_target": "T2, Bad / Bcl-xL on mitochondria isolated from 293 cells (Homo sapiens, UniProt Q07817)", "T2 construct": "expressed in transfected cells; host or cells: 293 cells (isolated mitochondria)", "T2 sequence (Q07817 whole entry)": "as the sequence (Q07817 whole entry, one chain of several) above", "assay": "Mitochondrial association of Bad in isolated mitochondria", "settings": "rank order", "procedure": "FIG. 8C is an images of a the expression of Bad and Bcl-xL in 293 cells co-transfected with HA-Bad and Bcl-xL-T7. After 48 hr, cells were harvested and isolated mitochondria were treated with BH3Is for 2 hrs. Following treatment, mitochondria were pelleted by centrifugation and subjected to Western blot analysis using anti-HA and anti-T 7 antibodies.\n(§1) BH3Is disrupted the mitochondrial association of Bad, but not Bcl-xL, after in vitro treatment of the mitochondria isolated from 293 cells co-transfected with Bad and Bcl-xL (FIG. 8C). The relative activities of the BH3Is in this assay (BH3I-2>BH3I-1>BH3I-1″) were consistent with the previous results. […] Again, the order of the activities in these assays was BH3I-2>BH3I-1>BH3I-1″."}, "Jurkat cells": {"test_system": "Jurkat cells", "assay": "Cytotoxicity by MTS assay and propidium iodide uptake", "assay_type": "cell-based", "procedure": "Since BH3Is induce apoptosis, their mode of action, for example, through disruption of BH3 domain interactions, was investigated next. If apoptosis induced by a BH3I is BH3-dependent, then cytotoxicity should correlate with the compound's ability to disrupt BH3 domain interactions in vitro. To examine this possibility, Jurkat cells were treated with the BH3 Is and the occurrence of cell death was assayed by the MTS assay and propidium iodide (PI) uptake (FIG. 7A). The cytotoxicity of BH3-Is followed the order of BH3I-2′>BH3I-2>BH3I-2″>BH3I-1>BH3I-1′>BH3I-1″>BH3I-1′″ which paralleled the order of their Ki values determined using in vitro Bcl-xL binding assays (FIGS. 7B and 7C). Similar data were obtained using a trypan blue exclusion assay."}, "[4]": {"biological_target": "T3, Bad-GFP with Bcl-2 or Bcl-xL in BSC-1 cells (Homo sapiens, UniProt Q07817)", "T3 construct": "expressed in transfected cells; host or cells: BSC-1 cells", "T3 sequence (Q07817 whole entry)": "as the sequence (Q07817 whole entry, one chain of several) above", "assay": "Bad-GFP localization in intact cells", "assay_type": "cell-based", "settings": "for mitochondrial targeting and heterodimerization of Bad-GFP: BH3I-1 100 μM, BH3I-2 50 μM, 6 hr, 100 μM zVAD; for order of activities, Bad-GFP localization: rank order", "procedure": "Bad is a pro-apoptotic member of the Bcl-2 family, whose apoptosis-promoting activity and mitochondrial targeting depends on heterodimerization with anti-apoptotic Bcl-2 family members (Zha et al., Cell 87, 619-28, 1996). To examine the effects of BH3Is on Bad localization, BSC-1 cells were transfected with 5 μg of Bad-GFP expression vector alone (FIG. 8D, panels 1 […]) or were co-transfected with 5 μg of Bad-GFP and 5 μg of Bcl-xL-T7 (FIG. 8D, panels 2-5). Twenty four hours after transfection, cells were treated with BH3I-1 (100 μM; FIG. 8D, panel 4) or BH3I-2 (50 μM; FIG. 8D, panel 5) for 6 hr. In order to determine mitochondrial localization, cells were pre-stained with MitoTracker Red CMXRos for 30 min prior to fixation (FIG. 8D, panel 2). All cells in this study were pretreated with 100 μM zVAD to decrease the detrimental effects of overexpression of proapoptotic Bcl-2 proteins on cell viability.\nas §1"}, "[5]": {"settings": "MTS assay and PI uptake, rank order"}}, "note": "Read-outs that look alike come from different tables or passages of the source."}
{"compound": "CC(C)C(C(=O)O)N1C(=O)C(=Cc2ccc(Br)cc2)SC1=S", "note": "(stereo in doubt) [BH3I-1]", "values": [{"measurement": "effect on BH3 peptide binding to Bcl-xL-modified SELDI surface", "setting": "BH3/Bcl-xL binding", "result": "reduction of BH3 binding"}, {"measurement": "order of changes in the FRET ratio", "setting": "[1]", "result": "BH3I-2>BH3I-1>BH3I-1″"}, {"measurement": "order of relative effects on YFP fluorescence reduction", "setting": "[1]", "result": "BH3I-2>BH3I-I>BH3I-1″"}, {"measurement": "effect on tBid binding to Bcl-xL", "setting": "[2]", "result": "dose-dependent decrease in the tBid binding"}, {"measurement": "relative activity in tBid pulldown", "setting": "[2]", "result": "lower activity than BH3I-2"}, {"measurement": "relative activities, mitochondrial association of Bad", "setting": "[3]", "result": "BH3I-2>BH3I-1>BH3I-1″"}, {"measurement": "order of cytotoxicity", "setting": "Jurkat cells; [5]", "result": "BH3I-2′>BH3I-2>BH3I-2″>BH3I-1>BH3I-1′>BH3I-1″>BH3I-1′″"}, {"measurement": "mitochondrial targeting and heterodimerization of Bad-GFP", "setting": "[4]", "result": "efficiently disrupted mitochondrial targeting and heterodimerization of Bad-GFP"}, {"measurement": "order of activities, Bad-GFP localization", "setting": "[4]", "result": "BH3I-2>BH3I-1>BH3I-1″"}]}
{"compound": "CC(C)C(C(=O)O)N1C(=O)/C(=C/c2ccccc2)SC1=S", "note": "(stereo not shown) [BH3I-1″]", "values": [{"measurement": "relative activity in SELDI assay", "setting": "BH3/Bcl-xL binding", "result": "lower potency than BH3I-1"}, {"measurement": "order of changes in the FRET ratio", "setting": "[1]", "result": "BH3I-2>BH3I-1>BH3I-1″"}, {"measurement": "order of relative effects on YFP fluorescence reduction", "setting": "[1]", "result": "BH3I-2>BH3I-I>BH3I-1″"}, {"measurement": "relative activity in tBid pulldown", "setting": "[2]", "result": "even lower"}, {"measurement": "relative activities, mitochondrial association of Bad", "setting": "[3]", "result": "BH3I-2>BH3I-1>BH3I-1″"}, {"measurement": "order of cytotoxicity", "setting": "Jurkat cells", "result": "BH3I-2′>BH3I-2>BH3I-2″>BH3I-1>BH3I-1′>BH3I-1″>BH3I-1′″"}, {"measurement": "order of activities, Bad-GFP localization", "setting": "[4]", "result": "BH3I-2>BH3I-1>BH3I-1″"}]}
{"compound": "O=C(Nc1cc(S(=O)(=O)c2ccc(Cl)cc2)ccc1Cl)c1cc(Cl)cc(Br)c1O", "note": "[BH3I-2]", "values": [{"measurement": "effect on BH3 peptide binding to Bcl-xL-modified SELDI surface", "setting": "BH3/Bcl-xL binding", "result": "reduction of BH3 binding"}, {"measurement": "relative activity in SELDI assay", "setting": "BH3/Bcl-xL binding", "result": "higher activity than BH3I-1"}, {"measurement": "order of changes in the FRET ratio", "setting": "[1]", "result": "BH3I-2>BH3I-1>BH3I-1″"}, {"measurement": "order of relative effects on YFP fluorescence reduction", "setting": "[1]", "result": "BH3I-2>BH3I-I>BH3I-1″"}, {"measurement": "effect on tBid binding to Bcl-xL", "setting": "[2]", "result": "dose-dependent decrease in the tBid binding"}, {"measurement": "relative activities, mitochondrial association of Bad", "setting": "[3]", "result": "BH3I-2>BH3I-1>BH3I-1″"}, {"measurement": "order of cytotoxicity", "setting": "Jurkat cells; [5]", "result": "BH3I-2′>BH3I-2>BH3I-2″>BH3I-1>BH3I-1′>BH3I-1″>BH3I-1′″"}, {"measurement": "mitochondrial targeting and heterodimerization of Bad-GFP", "setting": "[4]", "result": "efficiently disrupted mitochondrial targeting and heterodimerization of Bad-GFP"}, {"measurement": "order of activities, Bad-GFP localization", "setting": "[4]", "result": "BH3I-2>BH3I-1>BH3I-1″"}]}
